In assay [1] the test system is HCT-116 xenograft. Nature of the assay: Tumor suppressive effect in combination with ETR1, HCT-116 xenograft model. Type of assay: in vivo. The settings on record: 1 mg/kg IV, 5 on/2off; with Mapatumamab 10 mg/kg IP twice weekly; after 3 weeks of treatment; CD-1 nude mice. As to the method:
Tumor Suppressive Effect of Compound in Combination with ETR1 using an HCT-116 Xenograft Model
Female, CD-1, nude mice received 1.5×10^6 HCT-116 cells (in 100 uL of serum-free media) subcutaneously at the right flank. When average tumor size reached ˜150 mm^3 groups were formed using a balanced design based on tumor size, and treatment commenced. Tumor bearing mice were treated with either vehicle (5% D5W; 5 mL/kg, IV) or compound (1 mg/kg, IV) using a 5 on/2off treatment schedule. Mapatumamab (10 mg/kg, IP) was given twice weekly for the duration of the experiment, commencing one day after IAP inhibitory compounds.

In assay [2] the test system is Colorectal carcinoma HCT116 cells. Nature of the assay: HCT116 + ETR1 cell viability assay (MTT). Type of assay: cell-based. The settings on record: with ETR1 (40 ng/ml), 72 hrs. How it is done: Colorectal carcinoma HCT116 cells (ATCC# CCL-247) were cultured as monolayers in 96 well plates at a density of 2000 cells per well in 100 ul of McCoy's 5a medium (HyClone) supplemented with 2.2 g/L sodium bicarbonate (Gibco), 10% FBS (HyClone) and 1% penecillin/streptomycin (HyClone) for 24 hours. Triplicate wells of cells were treated for 72 hrs at 37° C. (5% CO2) with 50 ul of HGS agonistic Trail receptor antibody, ETR1 (40 ng/ml) in combination with 50 ul of diluted compound (0.01 to 10000 nM). Metabolic viability of remaining cells was assessed by MTT assay.
(§1) The percentage viability of compound-treated cells was expressed as a fraction of the absorbance/luminescence signal obtained from non-treated cells. EC50 values (corresponding to 50% cell survival in the presence of compound as compared to untreated controls) were calculated from MTT survival curves (HCT116 and SKOV3) using BioAssay software (CambridgeSoft) and from Cell Titer-Glo survival curves (synovioycte and Jurkat cells) using GraphPad Prism (Graph Pad Software Inc.). In the below chart, EC50 values are summarized as follows: a=EC50 of less than 10 nM; b=EC50 of 10-100 nM; and c=EC50 of greater than 100 nM.

For assay [3], the system named is Ovarian adenocarcinoma SKOV3 cells. Nature of the assay: SKOV3 cell viability assay (MTT). As to conditions: Homo sapiens, SK-OV-3, 72 hours. The format is cell-based. As to the method:
Ovarian adenocarcinoma SKOV3 cells (ATCC# HTB-77) were cultured as monolayers in McCoy's 5a medium (HyClone) supplemented with 2.2 g/L sodium bicarbonate (Gibco), 10% FBS (HyClone) and 1% penicillin/streptomycin (HyClone). Cells were seeded in tissue culture-treated 96 well plates at 5000 cells/well in 150 ul of media. After 24 hours, triplicate wells of cells were treated with various concentrations of compound (0.01 to 10000 nM) diluted in 50 ul of culture media. Cells were incubated at 37° C. (5% CO2) in the presence of compound for 72 hours. Metabolic viability of remaining cells was assessed by MTT (thiazolyl blue tetrazolium bromide, Sigma) assay. 20 ul of MTT reagent (10 mg/ml) was added per well and plates were incubated for 4 hours at 37° C. (5% CO2). The supernatant was then removed from the plate. The converted MTT product was solubilized with 100 uL of isopropanol and the absorbance was read at 570 nm using a Tecan spectrophotometer.
as §1

In assay [4] the test system is Rheumatoid arthritis human fibroblast-like synoviocytes (HFLS-RA). Nature of the assay: Human synoviocytes + Fas antibody cell viability assay (Cell Titer-Glo). The format is cell-based. The settings on record: with anti-human CD95 (Fas) antibody (300 ng/ml), 72 hrs, read-out: EC50 synoviocyctes + FAS. As to the method: Rheumatoid arthritis human fibroblast-like synoviocytes (HFLS-RA, Cell Applications Inc.) were seeded in 96-well plates at 3000 cells per well in 100 ul of complete synoviocyte growth medium (Cell Applications Inc.) one day prior to treatment. Triplicate wells of cells were treated by the addition of 50 ul of diluted compound (0.01 to 100 nM) in combination with 50 ul of anti-human CD95 (Fas) antibody (300 ng/ml; clone CH-11, Beckman Coulter/Immunotech) and incubated at 37° C. (5% CO2) for 72 hrs. Cell viability was measured by Cell Titer-Glo Luminescent Assay (Promega). Briefly, 100 ul of media was removed from wells and an equal volume of Cell Titer-Glo Reagent was added to the cells. The plates were mixed for 2 minutes on an orbital shaker and after a 10-minute incubation period at room temperature, the emitted luminescence was detected using a Tecan Infinite F200 spectrophotometer.
as §1

In assay [5] the test system is H460 xenograft. Nature of the assay: Tumor suppressive effect in combination with Taxotere, H460 xenograft model. Type of assay: in vivo. As to conditions: 1 mg/kg IV, 5 on/2off; with Taxotere 30 mg/kg IP; after 3 weeks of treatment; CD-1 nude mice. How it is done: Tumor Suppressive Effect of Compound in Combination with Taxotere using an H460 Xenograft Model
Female, CD-1, nude mice received 1×10^6 H460 cells (in 100 uL of serum-free media) subcutaneously at the right flank. When average tumor size reached ˜100 mm^3 groups were formed using a balanced design based on tumor size, and treatment commenced. Tumor bearing mice were treated with either vehicle (5% D5W; 5 mL/kg, IV) or compound (1 mg/kg, IV) using a 5 on/2off treatment schedule. Taxotere (30 mg/kg, IP) was given twice, one week apart commencing one day after IAP inhibitory compounds.

Some results are limits rather than exact numbers.

For `CN[C@@H](C)C(=O)N[C@H](C(=O)N1C[C@@H](NC(=O)c2ccc(C(=O)N[C@H]3C[C@@H](C(=O)N[C@@H]4CCCc5ccccc54)N(C(=O)[C@@H](NC(=O)[C@H](C)NC)C4CCCCC4)C3)cc2)C[C@H]1C(=O)N[C@@H]1CCCc2ccccc21)C1CCCCC1` [Compound 1], the “tumor growth suppression relative to vehicle treated controls” value was 59% in assay [1] and 54% in assay [5]. Moreover, the EC50 in assay [2], in assay [3] and in assay [4] was less than 10 nM each time.
In the case of `CN[C@@H](C)C(=O)N[C@H](C(=O)N1C[C@@H](NC(=O)C2CCC(C(=O)N[C@H]3C[C@@H](C(=O)N[C@@H]4CCc5ccccc54)N(C(=O)[C@@H](NC(=O)[C@H](C)NC)C4CCCCC4)C3)CC2)C[C@H]1C(=O)N[C@@H]1CCc2ccccc21)C1CCCCC1` (stereo partly drawn) [Compound 3], the EC50 in assay [2], in assay [3] and in assay [4] was less than 10 nM throughout.
As to `CN[C@@H](C)C(=O)N[C@H](C(=O)N1C[C@@H](NC(=O)C2CCC(C(=O)N[C@H]3C[C@@H](C(=O)NC(c4ccccc4)c4ccccc4)N(C(=O)[C@@H](NC(=O)[C@H](C)NC)C4CCCCC4)C3)CC2)C[C@H]1C(=O)NC(c1ccccc1)c1ccccc1)C1CCCCC1` (stereo partly drawn) [Compound 7], the EC50 in assay [2], in assay [3] and in assay [4] was less than 10 nM each time.
With `CN[C@@H](C)C(=O)N[C@H](C(=O)N1C[C@@H](NC(=O)c2ccc(-c3ccc(C(=O)N[C@H]4C[C@@H](C(=O)N[C@H](COCc5ccccc5)c5ccccc5)N(C(=O)[C@@H](NC(=O)[C@H](C)NC)C5CCCCC5)C4)cc3)cc2)C[C@H]1C(=O)N[C@H](COCc1ccccc1)c1ccccc1)C1CCCCC1` [Compound 27], the figures for the EC50 in assay [2] and in assay [3] were less than 10 nM and 10 to 100 nM, respectively.
The like results for `CN[C@@H](C)C(=O)N[C@H](C(=O)N1C[C@@H](NC(=O)c2ccc(C(=O)N[C@H]3C[C@@H](C(=O)N4CCCC[C@@H]4c4ccccc4)N(C(=O)[C@@H](NC(=O)[C@H](C)NC)C4CCCCC4)C3)cc2)CC1C(=O)N1CCCC[C@@H]1c1ccccc1)C1CCCCC1` (stereo partly drawn) [Compound 28] were, in that order, 10 to 100 nM and 10 to 100 nM.
Regarding `CN[C@@H](C)C(=O)N[C@H](C(=O)N1C[C@@H](NC(=O)c2ccc(C(=O)N[C@H]3C[C@@H](C(=O)NCc4ccccc4)N(C(=O)[C@@H](NC(=O)[C@H](C)NC)C4CCCCC4)C3)cc2)C[C@H]1C(=O)NCc1ccccc1)C1CCCCC1` [Compound 29], the EC50 in assay [2] and in assay [3] was less than 10 nM throughout.
Take `CN[C@@H](C)C(=O)N[C@H](C(=O)N1C[C@@H](NC(=O)c2ccc(C(=O)N[C@H]3C[C@@H](C(=O)N4CCC[C@@H]4c4ccccc4)N(C(=O)[C@@H](NC(=O)[C@H](C)NC)C4CCCCC4)C3)cc2)C[C@H]1C(=O)N1CCC[C@@H]1c1ccccc1)C1CCCCC1` [Compound 30]: the EC50 in assay [2] and in assay [3] was more than 100 nM in each case.
As for `CN[C@@H](C)C(=O)N[C@H](C(=O)N1C[C@@H](NC(=O)c2ccc(C(=O)N[C@H]3C[C@@H](C(=O)N[C@@H]4CCOc5ccccc54)N(C(=O)[C@@H](NC(=O)[C@H](C)NC)C4CCCCC4)C3)cc2)C[C@H]1C(=O)N[C@@H]1CCOc2ccccc21)C1CCCCC1` [Compound 31], the EC50 in assay [2] and in assay [3] was less than 10 nM throughout.
Consider `CN[C@@H](C)C(=O)N[C@H](C(=O)N1C[C@@H](NC(=O)C2CCC(C(=O)N[C@H]3C[C@@H](C(=O)N[C@@H]4CCOc5ccccc54)N(C(=O)[C@@H](NC(=O)[C@H](C)NC)C4CCCCC4)C3)CC2)C[C@H]1C(=O)N[C@@H]1CCOc2ccccc21)C1CCCCC1` (stereo partly drawn) [Compound 32], for which the EC50 in assay [2] and in assay [3] was less than 10 nM throughout.
`CN[C@@H](C)C(=O)N[C@H](C(=O)N1C[C@@H](NC(=O)c2ccc(C(=O)N[C@H]3C[C@@H](C(=O)N4CC[C@@H](c5ccccc5)C4)N(C(=O)[C@@H](NC(=O)[C@H](C)NC)C4CCCCC4)C3)cc2)C[C@H]1C(=O)N1CC[C@@H](c2ccccc2)C1)C1CCCCC1` [Compound 41]: the concentration for a half-maximal effect (EC50) in assay [2] and in assay [4] was 10 to 100 nM each time.
Turning to `CC[C@H](NC)C(=O)N[C@H](C(=O)N1C[C@@H](NC(=O)c2ccc(C(=O)N[C@H]3C[C@@H](C(=O)N[C@@H]4CCCc5ccccc54)N(C(=O)[C@@H](NC(=O)[C@H](CC)NC)C4CCCCC4)C3)cc2)C[C@H]1C(=O)N[C@@H]1CCCc2ccccc21)C1CCCCC1` [Compound 51], the EC50 in assay [2] and in assay [4] was less than 10 nM in each case.

These data come from patent US20110117081A1, “FUNCTIONALIZED PYRROLIDINES AND USE THEREOF AS IAP INHIBITORS” (priority 2008, published 2011).
